Test results from patent US20040220266A1, “Composition and method for enhancing the bioavailability of calcium and magnesium in dietary supplements and food additives” (priority 2002, published 2004).

Experiments:
[1] = oral dietary supplement; cited from earlier work
[2] = saturated aqueous solution, 20° C.; cited from earlier work
[3] = Storage stability of the powders; format: physicochemical; conditions: shelf life
[4] = Solubility in water / saturated aqueous solution
Description: The term “soluble” as used herein means capable of being dissolved, going into a liquid state from a solid state.

Molecule	bioavailability / absorption of calcium (in words) [1]	other results
O=C([O-])[O-].[Ca+2] [Calcium carbonate]	relatively poor	
CC(O)C(=O)[O-].CC(O)C(=O)[O-].O.O.O.O.O.[Ca+2] (stereo not shown) [calcium lactate pentahydrate, 2-hydroxypropanoic acid calcium salt pentahydrate]	good	
O.O.O=P([O-])([O-])O.[Ca+2] [dibasic calcium phosphate dihydrate]	poor	
O=P([O-])([O-])[O-].O=P([O-])([O-])[O-].[Ca+2].[Ca+2].[Ca+2] [tribasic calcium phosphate]	poor	
O.O.O.O.O=C([O-])CC(O)(CC(=O)[O-])C(=O)[O-].O=C([O-])CC(O)(CC(=O)[O-])C(=O)[O-].[Ca+2].[Ca+2].[Ca+2] [Calcium citrate tetrahydrate]	better absorbed than the carbonate or phosphates of calcium	
d-gluconic acid calcium salt [Calcium gluconate]		pH of saturated solution [2]: 6-7
magnesium 3-hydroxy-3-methylbutyrate [MgHMB]		stability of the powder (in words) [3]: stable powders with long shelf lives; concentration of saturated aqueous solution ([4]; 20° C.): 32 % by weight; solubility over pH range (in words) ([4]; broad range of pH values): highly soluble; pH of aqueous solution (in words) ([4]; pure salt dissolved in water): nearly neutral or slightly alkaline
